Values after ≈ are worked out from the molar mass of the structure shown. Where a SMILES comes first, the peptide text is derived from it.
Columns and labels:
[1] = system: P388; test: In vitro inhibition of growth of p388 cells; format: functional; settings: Mus musculus, read-out: ED50 (the source's name)
[2] = system: NCI; test: Overall panel averaged growth inhibitory concentration against the U. S. National Cancer Institute panel of sixty human cancer cell lines; format: functional

EC50 [1] [µg/mL]	Compound	GI50 [2] [µM]
3 (≈ 2.7 µM)	CC[C@H](C)[C@@H]1NC(=O)[C@@H]2CCCN2C(=O)[C@@H]2CCCN2C(=O)[C@H]([C@@H](C)CC)NC(=O)[C@H](Cc2ccc(O)cc2)NC(=O)[C@@H]2CCCN2C(=O)[C@@H]2CCCN2C(=O)[C@H](CC(C)C)NC(=O)[C@H](C)NC(=O)[C@H](Cc2ccccc2)NC1=O (cyclo(ALPPYIPPIF))	0.55
2.9 (≈ 2.55 µM)	CC[C@H](C)[C@@H]1NC(=O)[C@@H]2CCCN2C(=O)[C@@H]2CCCN2C(=O)[C@H]([C@@H](C)CC)NC(=O)[C@H](Cc2ccc(O)cc2)NC(=O)[C@@H]2CCCN2C(=O)[C@@H]2CCCN2C(=O)[C@H](CC(C)C)NC(=O)[C@H](C(C)C)NC(=O)[C@H](Cc2ccccc2)NC1=O (cyclo(FVLPPYIPPI))	> 10
4.1 (≈ 3.65 µM)	CC[C@H](C)[C@@H]1NC(=O)[C@@H]2CCCN2C(=O)[C@@H]2CCCN2C(=O)[C@H](C(C)C)NC(=O)[C@H](Cc2ccc(O)cc2)NC(=O)[C@@H]2CCCN2C(=O)[C@@H]2CCCN2C(=O)[C@H](CC(C)C)NC(=O)[C@H](C(C)C)NC(=O)[C@H](Cc2ccccc2)NC1=O (cyclo(FVLPPYVPPI))	> 10

Source: ChEMBL document CHEMBL1128751, “Isolation and structure of the human cancer cell growth inhibitory cyclic decapeptides phakellistatins 7, 8 and 91,2” (1995)
